Results from ChEMBL document CHEMBL2074343 (Pharm Res, 2004).

What was measured:
Type in all cases: functional, cell-based
[1] = target: T1, ATP-dependent translocase ABCB1 (Homo sapiens, UniProt P08183); assay: TP_TRANSPORTER: transepithelial transport in L-MDR1 cells; settings: pig
[2] = target: T1, ATP-dependent translocase ABCB1; assay: TP_TRANSPORTER: transepithelial transport of vinblastine in the presence of Atrovastatin at 50uM in KBV1 cells; settings: kbv1, 50 µM
[3] = target: T1, ATP-dependent translocase ABCB1; assay: TP_TRANSPORTER: transepithelial transport of vinblastine in the presence of Simvastatin acid at 50uM in L-MDR1 cells; settings: pig, l-mdr1, 50 µM

T1 sequence (P08183 whole entry): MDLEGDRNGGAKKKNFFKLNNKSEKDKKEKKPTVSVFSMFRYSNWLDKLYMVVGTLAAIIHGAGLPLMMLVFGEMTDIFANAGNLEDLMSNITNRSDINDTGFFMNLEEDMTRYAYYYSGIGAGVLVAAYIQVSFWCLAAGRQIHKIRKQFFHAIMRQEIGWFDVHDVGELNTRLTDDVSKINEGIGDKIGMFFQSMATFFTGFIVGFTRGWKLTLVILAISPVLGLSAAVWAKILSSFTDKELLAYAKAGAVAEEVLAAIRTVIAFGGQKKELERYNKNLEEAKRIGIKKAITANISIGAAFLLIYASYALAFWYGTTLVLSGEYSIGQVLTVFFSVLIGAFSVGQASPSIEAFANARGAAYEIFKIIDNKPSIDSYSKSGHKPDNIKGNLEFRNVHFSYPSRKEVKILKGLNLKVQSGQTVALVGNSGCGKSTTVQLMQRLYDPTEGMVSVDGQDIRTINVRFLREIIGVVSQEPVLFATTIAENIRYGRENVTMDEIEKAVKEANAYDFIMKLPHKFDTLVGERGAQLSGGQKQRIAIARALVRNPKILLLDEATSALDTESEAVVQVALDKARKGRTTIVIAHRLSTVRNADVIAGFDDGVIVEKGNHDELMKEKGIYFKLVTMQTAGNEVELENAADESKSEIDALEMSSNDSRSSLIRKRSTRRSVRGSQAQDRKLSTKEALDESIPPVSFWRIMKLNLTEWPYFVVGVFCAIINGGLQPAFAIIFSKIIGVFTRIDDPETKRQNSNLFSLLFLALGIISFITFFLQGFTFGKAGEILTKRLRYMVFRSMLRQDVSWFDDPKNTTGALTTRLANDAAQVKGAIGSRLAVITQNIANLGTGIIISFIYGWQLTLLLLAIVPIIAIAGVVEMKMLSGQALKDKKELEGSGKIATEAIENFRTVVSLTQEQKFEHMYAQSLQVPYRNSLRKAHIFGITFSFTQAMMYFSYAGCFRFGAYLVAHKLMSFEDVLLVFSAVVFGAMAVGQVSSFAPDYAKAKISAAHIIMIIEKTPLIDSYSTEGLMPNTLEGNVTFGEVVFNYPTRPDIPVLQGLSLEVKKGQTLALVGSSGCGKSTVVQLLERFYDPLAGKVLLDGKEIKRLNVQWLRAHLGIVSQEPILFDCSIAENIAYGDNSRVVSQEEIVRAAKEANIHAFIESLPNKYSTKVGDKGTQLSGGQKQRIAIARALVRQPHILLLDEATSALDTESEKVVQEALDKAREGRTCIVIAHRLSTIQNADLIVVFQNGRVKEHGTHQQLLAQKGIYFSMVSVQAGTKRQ

Row | Activity [1] | Activity [2] | Activity [3] | Structure (SMILES)
1 | substrate [+] | is not an inhibitor [-] |  | CC(C)c1c(C(=O)Nc2ccccc2)c(-c2ccccc2)c(-c2ccc(F)cc2)n1CC[C@@H](O)C[C@@H](O)CC(=O)O [ATORVASTATIN]
2 | substrate [+] |  | is not an inhibitor [-] | CCC(C)(C)C(=O)O[C@H]1C[C@@H](C)C=C2C=C[C@H](C)[C@H](CC[C@@H](O)C[C@@H](O)CC(=O)O)[C@H]21 [TENIVASTATIN]
